The text below walks through data of patent publication US20250186437A1, “CARBOLINE COMPOUNDS AND USE THEREOF” (PTC Therapeutics, Inc., priority 2021, published 2025).

This experiment relates to MOLM-13 cells. As to the kind of experiment: MOLM-13 Cell Proliferation Assay (indicator of DHODH inhibition). Format: cell-based. As to conditions: Homo sapiens, 72 Hours of culture, CellTiter-Glo, no uridine. In short, it runs like this: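 Low-passage MOLM-13 cells (10^4/well) in RPMI 1640 + 10% FBS exposed to compound (0.5% DMSO final) for 72 h at 37 °C, 5% CO2. Viability read by CellTiter-Glo luminescence; growth reflects de novo pyrimidine synthesis dependent on DHODH.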
Turning to `NS(=O)(=O)c1ccc(C2c3[nH]c4cc(F)c(Cl)cc4c3CCN2c2nccc(C(F)(F)F)n2)cc1` (stereo not drawn) [Compound 115, 4-{6-chloro-7-fluoro-2-[4-(trifluoromethyl)pyrimidin-2-yl]-2,3,4,9-tetrahydro-1H-pyrido[3,4-b]indol-1-yl}benzene-1-sulfonamide], 9.4 nM corresponded to half-maximal inhibition (IC50).

Turning to `Cc1ccc(C2c3[nH]c4ccc(Cl)c(F)c4c3CCN2c2nc(C)c(F)c(C)n2)cc1` (stereo not drawn) [Compound 116, 6-chloro-5-fluoro-2-(5-fluoro-4,6-dimethylpyrimidin-2-yl)-1-(4-methylphenyl)-2,3,4,9-tetrahydro-1H-pyrido[3,4-b]indole], the IC50 (usually the concentration at which inhibition is half-maximal) amounted to 6.7 nM.

Regarding `Cc1nc(N2CCc3c([nH]c4ccc(Cl)c(F)c34)C2c2cccc(F)c2F)nc(C)c1F` (stereo not drawn) [Compound 117, 6-chloro-1-(2,3-difluorophenyl)-5-fluoro-2-(5-fluoro-4,6-dimethylpyrimidin-2-yl)-2,3,4,9-tetrahydro-1H-pyrido[3,4-b]indole], the IC50 was 2 nM. This IC50 is about 3.4-fold lower than that of the molecule before.

As for `Cc1ccc(C2c3[nH]c4ccc(Cl)c(F)c4c3CCN2c2nc(C)c(F)c(C)n2)c(F)c1F` (stereo not drawn) [Compound 118, 6-chloro-1-(2,3-difluoro-4-methylphenyl)-5-fluoro-2-(5-fluoro-4,6-dimethylpyrimidin-2-yl)-2,3,4,9-tetrahydro-1H-pyrido[3,4-b]indole], half-maximal inhibition (IC50) required 1 nM.

With `Fc1cccc(C2c3[nH]c4ccc(Cl)cc4c3CCN2c2nccc(C(F)(F)F)n2)c1F` (stereo not drawn) [Compound 119, 6-chloro-1-(2,3-difluorophenyl)-2-[4-(trifluoromethyl)pyrimidin-2-yl]-2,3,4,9-tetrahydro-1H-pyrido[3,4-b]indole], half-maximal inhibition (IC50) was put at 2.2 nM.

Molecule `COc1ccc(C2c3[nH]c4ccc(Cl)cc4c3CCN2c2nccc(C(F)(F)F)n2)c(F)c1F` (stereo not drawn) [Compound 120, 6-chloro-1-(2,3-difluoro-4-methoxyphenyl)-2-[4-(trifluoromethyl)pyrimidin-2-yl]-2,3,4,9-tetrahydro-1H-pyrido[3,4-b]indole] gave an IC50 of 3.7 nM.

`N#Cc1ccnc(N2CCc3c([nH]c4cc(F)c(Cl)cc34)C2c2ccc(C(F)(F)F)cc2)n1` (stereo not drawn) [Compound 121, 2-{6-chloro-7-fluoro-1-[4-(trifluoromethyl)phenyl]-1,3,4,9-tetrahydro-2H-pyrido[3,4-b]indol-2-yl}pyrimidine-4-carbonitrile] came in with a 50% inhibitory concentration (IC50) of 24.6 nM.

Take `CN(C)c1ccc(C2c3[nH]c4cc(F)c(Cl)cc4c3CCN2c2nccc(C(F)(F)F)n2)cn1` (stereo not drawn) [Compound 122, 5-{6-chloro-7-fluoro-2-[4-(trifluoromethyl)pyrimidin-2-yl]-2,3,4,9-tetrahydro-1H-pyrido[3,4-b]indol-1-yl}-N,N-dimethylpyridin-2-amine]: inhibition was half-maximal at 8.2 nM (IC50). This IC50 lies about 3-fold lower than the previous one.

`Cc1ccc(C2c3[nH]c4cc(F)c(Cl)cc4c3CCN2c2ncc(F)c(C)n2)cc1` (stereo not drawn) [Compound 123, 6-chloro-7-fluoro-2-(5-fluoro-4-methylpyrimidin-2-yl)-1-(4-methylphenyl)-2,3,4,9-tetrahydro-1H-pyrido[3,4-b]indole] showed an IC50 of 12.1 nM.

`Cc1nc(N2CCc3c([nH]c4cc(F)c(Cl)cc34)C2c2cccc(F)c2F)ncc1F` (stereo not drawn) [Compound 124, 6-chloro-1-(2,3-difluorophenyl)-7-fluoro-2-(5-fluoro-4-methylpyrimidin-2-yl)-2,3,4,9-tetrahydro-1H-pyrido[3,4-b]indole] had an IC50 of 8.6 nM.

In turn, `Cc1ccc(C2c3[nH]c4cc(F)c(Cl)cc4c3CCN2c2ncc(F)c(C)n2)c(F)c1F` (stereo not drawn) [Compound 125, 6-chloro-1-(2,3-difluoro-4-methylphenyl)-7-fluoro-2-(5-fluoro-4-methylpyrimidin-2-yl)-2,3,4,9-tetrahydro-1H-pyrido[3,4-b]indole] gave a half-maximal inhibitory concentration (IC50) of 3.2 nM. This IC50 is about 2.7-fold lower than that of the molecule before.

The molecule `Cc1ccnc(N2CCc3c([nH]c4cc(F)c(Cl)cc34)C2c2ccc(N(C)C)nc2)n1` (stereo not drawn) [Compound 126, 5-[6-chloro-7-fluoro-2-(4-methylpyrimidin-2-yl)-2,3,4,9-tetrahydro-1H-pyrido[3,4-b]indol-1-yl]-N,N-dimethylpyridin-2-amine] came in with an IC50 of 21.3 nM.

Molecule `Cc1ccc(C2c3[nH]c4ccc(Cl)cc4c3CCN2c2nccc(C(F)(F)F)n2)c(F)c1F` (stereo not drawn) [Compound 128, 6-chloro-1-(2,3-difluoro-4-methylphenyl)-2-[4-(trifluoromethyl)pyrimidin-2-yl]-2,3,4,9-tetrahydro-1H-pyrido[3,4-b]indole] displayed an IC50 of 0.9 nM. This IC50 lies about 24-fold lower than the previous one.

`Cc1cc(C)nc(N2CCc3c([nH]c4cc(F)c(Cl)cc34)C2c2cccc(F)c2F)n1` (stereo not drawn) [Compound 129, 6-chloro-1-(2,3-difluorophenyl)-2-(4,6-dimethylpyrimidin-2-yl)-7-fluoro-2,3,4,9-tetrahydro-1H-pyrido[3,4-b]indole] yielded an IC50 of 7.6 nM.

Take `Cc1ccc(C2c3[nH]c4cc(F)c(Cl)cc4c3CCN2c2ncc(Cl)cn2)c(F)c1F` (stereo not drawn) [Compound 130, 6-chloro-2-(5-chloropyrimidin-2-yl)-1-(2,3-difluoro-4-methylphenyl)-7-fluoro-2,3,4,9-tetrahydro-1H-pyrido[3,4-b]indole]: half-maximal inhibition (IC50) was put at 5.8 nM. The IC50 values of the last two molecules are within 1.5-fold of each other.

Consider `Fc1cc2[nH]c3c(c2cc1Cl)CCN(c1ncc(Cl)cn1)C3c1cccc(F)c1F` (stereo not drawn) [Compound 131, 6-chloro-2-(5-chloropyrimidin-2-yl)-1-(2,3-difluorophenyl)-7-fluoro-2,3,4,9-tetrahydro-1H-pyrido[3,4-b]indole], for which the half-inhibitory concentration (IC50) was 9.2 nM.

Molecule `Cc1cc(C)nc(N2CCc3c([nH]c4cc(F)c(Cl)cc34)C2c2ccc(C)c(F)c2F)n1` (stereo not drawn) [Compound 132, 6-chloro-1-(2,3-difluoro-4-methylphenyl)-2-(4,6-dimethylpyrimidin-2-yl)-7-fluoro-2,3,4,9-tetrahydro-1H-pyrido[3,4-b]indole] had an IC50 of 2.1 nM.

Regarding `Fc1cc2[nH]c3c(c2cc1Cl)CCN(c1ncc(C(F)(F)F)cn1)C3c1cccc(F)c1F` (stereo not drawn) [Compound 133, 6-chloro-1-(2,3-difluorophenyl)-7-fluoro-2-[5-(trifluoromethyl)pyrimidin-2-yl]-2,3,4,9-tetrahydro-1H-pyrido[3,4-b]indole], the IC50 was 11.2 nM.

Take `Cc1ccc(C2c3[nH]c4cc(F)c(Cl)cc4c3CCN2c2ncc(C)cn2)cc1` (stereo not drawn) [Compound 134, 6-chloro-7-fluoro-1-(4-methylphenyl)-2-(5-methylpyrimidin-2-yl)-2,3,4,9-tetrahydro-1H-pyrido[3,4-b]indole]: inhibition was half-maximal at 21.7 nM (IC50).

As to `Cc1ccc(C2c3[nH]c4ccc(Cl)c(F)c4c3CCN2c2ncc(C)cn2)cc1` (stereo not drawn) [Compound 135, 6-chloro-5-fluoro-1-(4-methylphenyl)-2-(5-methylpyrimidin-2-yl)-2,3,4,9-tetrahydro-1H-pyrido[3,4-b]indole], it took 10.2 nM to reach half-maximal inhibition (IC50).

Consider `Cc1cnc(N2CCc3c([nH]c4cc(F)c(Cl)cc34)C2c2ccc(C)c(F)c2F)nc1` (stereo not drawn) [Compound 136, 6-chloro-1-(2,3-difluoro-4-methylphenyl)-7-fluoro-2-(5-methylpyrimidin-2-yl)-2,3,4,9-tetrahydro-1H-pyrido[3,4-b]indole], for which the IC50 was found to be 7.5 nM.

Turning to `Cc1cnc(N2CCc3c([nH]c4ccc(Cl)c(F)c34)C2c2ccc(C)c(F)c2F)nc1` (stereo not drawn) [Compound 137, 6-chloro-1-(2,3-difluoro-4-methylphenyl)-5-fluoro-2-(5-methylpyrimidin-2-yl)-2,3,4,9-tetrahydro-1H-pyrido[3,4-b]indole], the IC50 is 2.4 nM.

For the molecule `Cc1ccc(C2c3[nH]c4cc(F)c(Cl)cc4c3CCN2c2ncc(F)cn2)c(F)c1F` (stereo not drawn) [Compound 138, 6-chloro-1-(2,3-difluoro-4-methylphenyl)-7-fluoro-2-(5-fluoropyrimidin-2-yl)-2,3,4,9-tetrahydro-1H-pyrido[3,4-b]indole], half-maximal inhibition (IC50) was put at 3.5 nM.

`Cc1ccnc(N2CCc3c([nH]c4cc(F)c(Cl)cc34)C2c2ccc(C)c(F)c2F)n1` (stereo not drawn) [Compound 139, 6-chloro-1-(2,3-difluoro-4-methylphenyl)-7-fluoro-2-(4-methylpyrimidin-2-yl)-2,3,4,9-tetrahydro-1H-pyrido[3,4-b]indole]: the IC50 was 3.6 nM.

For the molecule `Cc1ccc(C2c3[nH]c4cc(F)c(Cl)cc4c3CCN2c2nccc(C(F)(F)F)n2)c(F)c1F` (stereo not drawn) [Compound 140, 6-chloro-1-(2,3-difluoro-4-methylphenyl)-7-fluoro-2-[4-(trifluoromethyl)pyrimidin-2-yl]-2,3,4,9-tetrahydro-1H-pyrido[3,4-b]indole], half-maximal inhibition (IC50) was put at 1 nM.

As to `Cc1ccc(C2c3[nH]c4cc(F)c(Cl)cc4c3CCN2c2nccc(C#N)n2)c(F)c1F` (stereo not drawn) [Compound 141, 2-[6-chloro-1-(2,3-difluoro-4-methylphenyl)-7-fluoro-1,3,4,9-tetrahydro-2H-pyrido[3,4-b]indol-2-yl]pyrimidine-4-carbonitrile], the half-inhibitory concentration (IC50) amounted to 8.7 nM.

Molecule `Cc1ccc(C2c3[nH]c4cc(F)c(Cl)cc4c3CCN2c2ncc(C(F)(F)F)cn2)c(F)c1F` (stereo not drawn) [Compound 142, 6-chloro-1-(2,3-difluoro-4-methylphenyl)-7-fluoro-2-[5-(trifluoromethyl)pyrimidin-2-yl]-2,3,4,9-tetrahydro-1H-pyrido[3,4-b]indole] had an IC50 of 4.3 nM.

As to `Cc1ccc(C2c3[nH]c4cc(F)c(Cl)cc4c3CCN2c2nc(C)c(F)c(C)n2)c(F)c1F` (stereo not drawn) [Compound 143, 6-chloro-1-(2,3-difluoro-4-methylphenyl)-7-fluoro-2-(5-fluoro-4,6-dimethylpyrimidin-2-yl)-2,3,4,9-tetrahydro-1H-pyrido[3,4-b]indole], the IC50 worked out at 1.2 nM.

Consider `Fc1cncc(C2c3[nH]c4cc(F)c(Cl)cc4c3CCN2c2nccc(C(F)(F)F)n2)c1` (stereo not drawn) [Compound 145, 6-chloro-7-fluoro-1-(5-fluoropyridin-3-yl)-2-[4-(trifluoromethyl)pyrimidin-2-yl]-2,3,4,9-tetrahydro-1H-pyrido[3,4-b]indole], for which the half-maximal inhibitory concentration (IC50) amounted to 17.2 nM.

`Fc1cncc(C2c3[nH]c4ccc(Cl)c(F)c4c3CCN2c2nccc(C(F)(F)F)n2)c1` (stereo not drawn) [Compound 146, 6-chloro-5-fluoro-1-(5-fluoropyridin-3-yl)-2-[4-(trifluoromethyl)pyrimidin-2-yl]-2,3,4,9-tetrahydro-1H-pyrido[3,4-b]indole] displayed an IC50 of 11.4 nM.
